Results as given in patent US12503453B2, “USP7 inhibition” (Dana-Farber Cancer Institute, Inc., priority 2018, dated 2025).

Experiments:
[1] = system: MCF7 cells; assay: Cell cycle analysis by propidium iodide staining; assay type: cell-based; settings: 1 μM, 24 hours
Experimental: For propidium iodide (PI) staining, treated cells (˜1 million per condition) were washed with cold PBS, then fixed in 80% ethanol overnight at −20° C. After fixing, cells were pelleted, washed with PBS, and reconstituted in 500 μL FxCycle PI/RNAse A staining solution (Thermo Fisher). Cells were stored overnight at 4° C. and analyzed using a BD Fortessa flow cytometer.

[2] = target: DUBs in HEK293AD lysate (Homo sapiens, UniProt Q93009); assay: In situ DUB profiling, competitive ABPP with Bio-Ub-PA/VME and quantitative MS; assay type: binding; settings: HEK293 crude cell extract, 5 hours pre-incubation
Experimental: DUB profiling was performed using conditions similar to those in Lawson, A. P. et al. Identification of deubiquitinase targets of isothiocyanates using SILAC-assisted quantitative mass spectrometry. Oncotarget 5, (2017). HEK 293AD cells were lysed using target engagement lysis buffer (50 mM Tris pH 8.0, 150 mM NaCl, 5 mM MgCl2, 0.5 mM EDTA, 0.5% NP-40, 10% glycerol, 1 mM TCEP, protease and phosphatase inhibitors), and the lysate was cleared by centrifugation. […] Excess inhibitor was removed using a 30K Amicon spin filter, then the resulting lysate was incubated with 1 μM each of Biotin-Ub-PA and Biotin-Ub-VME for 90 minutes at RT. SDS was added to a final concentration of 1.2%, and samples were heated to 80° C. for 5 minutes. After cooling to RT, 1×PBS was added to dilute the final SDS concentration to 0.2%. […]
(§1) Streptavidin beads were resuspended in 95 μL 100 mM Tris pH 8.0. […] Eluted peptides were then analyzed by nanoLC-MS as described (Ficarro, S. B. et al. Improved electrospray ionization efficiency compensates for diminished chromatographic resolution and enables proteomics analysis of tyrosine signaling in embryonic stem cells. Anal. Chem. 81, 3440-3447 (2009)) with a NanoAcquity UPLC system (Waters, Milford, MA) interfaced to a QExactive HF mass spectrometer (Thermofisher Scientific, San Jose, CA). […]

[3] = target: HEK293 proteome (USP7) (Homo sapiens (Human), UniProt Q93009); assay: Compound 6-DTB proteome-wide profiling; assay type: binding; settings: HEK293 cell lysates, 5 hours, 1 μM or 10 μM
Chain of HEK293 proteome (USP7) (Q93009 whole entry): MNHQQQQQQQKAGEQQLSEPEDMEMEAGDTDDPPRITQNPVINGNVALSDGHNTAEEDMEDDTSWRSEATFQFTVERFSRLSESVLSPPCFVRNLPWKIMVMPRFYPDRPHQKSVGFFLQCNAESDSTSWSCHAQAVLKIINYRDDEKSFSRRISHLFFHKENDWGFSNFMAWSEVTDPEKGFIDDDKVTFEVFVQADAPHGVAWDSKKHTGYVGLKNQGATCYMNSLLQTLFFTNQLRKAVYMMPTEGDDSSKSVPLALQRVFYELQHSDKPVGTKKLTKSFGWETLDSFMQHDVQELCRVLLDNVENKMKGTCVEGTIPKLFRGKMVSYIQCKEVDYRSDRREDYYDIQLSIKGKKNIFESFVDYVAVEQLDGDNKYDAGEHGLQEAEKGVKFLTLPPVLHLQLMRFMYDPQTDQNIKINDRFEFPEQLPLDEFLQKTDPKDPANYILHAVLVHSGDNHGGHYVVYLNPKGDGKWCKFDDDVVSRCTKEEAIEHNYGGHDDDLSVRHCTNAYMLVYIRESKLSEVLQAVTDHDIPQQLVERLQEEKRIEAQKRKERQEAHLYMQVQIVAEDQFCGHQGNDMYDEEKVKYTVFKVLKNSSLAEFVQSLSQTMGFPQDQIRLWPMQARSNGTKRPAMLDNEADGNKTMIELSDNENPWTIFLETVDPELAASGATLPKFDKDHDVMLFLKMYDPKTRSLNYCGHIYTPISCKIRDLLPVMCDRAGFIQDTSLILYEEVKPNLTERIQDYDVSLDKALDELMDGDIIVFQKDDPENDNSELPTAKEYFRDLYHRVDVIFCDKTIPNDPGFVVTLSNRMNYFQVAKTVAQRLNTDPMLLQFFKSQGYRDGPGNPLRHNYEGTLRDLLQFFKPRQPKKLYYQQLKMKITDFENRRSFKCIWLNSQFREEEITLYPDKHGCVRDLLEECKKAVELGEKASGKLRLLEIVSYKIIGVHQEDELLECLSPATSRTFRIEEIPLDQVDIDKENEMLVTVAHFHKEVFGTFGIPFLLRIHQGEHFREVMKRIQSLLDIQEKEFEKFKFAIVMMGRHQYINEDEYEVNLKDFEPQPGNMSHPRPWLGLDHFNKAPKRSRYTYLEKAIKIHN
Experimental: HEK 293AD cells were lysed as described above, and the lysate was cleared by centrifugation. […] SDS was added to a final concentration of 1.2% (27.2 μL of a 10% stock), and denatured by heating to 80° C. for 5 minutes. After cooling to RT, 1125 μL 1×PBS was added to dilute the final SDS concentration to 0.2%. 50 μL streptavidin agarose slurry was added to each sample, followed by incubation at RT for 3 hours. After streptavidin enrichment, samples were washed vigorously (2×0.2% SDS, 3×PBS, 3×ddH2O). After the final wash, all supernatant was removed using a flat-bottom tip, and the resin was flash frozen and stored at −80° C. until workup for TMT labeling.
as §1, with “8.0. Each sample was denatured with 0.1% rapigest, reduced (10 mM dithiothreitol), alkylated (22.5 mM iodoacetamide), and digested with trypsin overnight at 37° C.” for “8.0.”

[4] = system: Ewing sarcoma cell lines, TP53 WT and mutant; assay: Cell proliferation (CellTiter-Glo), panel of Ewing sarcoma cell lines; assay type: cell-based; settings: WT and TP53-KO Ewing Sarcoma cells
Experimental: (§2) Cells were plated in 384-well culture-treated plates and allowed to settle overnight. After drug treatment and appropriate incubation time, cell viability was assessed using the CellTiter-Glo Luminescent Cell Viability Assay (Promega). Luminescence was read on a Fluostar Omega Reader (BMG Labtech).

[5] = system: TC32 cells; assay: Cell proliferation (CellTiter-Glo), TC32; assay type: cell-based; settings: TP53 wild-type, 3 days
Experimental: as §2

[6] = system: TC138 cells; assay: Cell proliferation (CellTiter-Glo), TC138; assay type: cell-based; settings: TP53 wild-type, 3 days
Experimental: as §2

blocking of USP7 labeling by DUB ABPs [2]: significantly blocked USP7 labeling
inhibition of compound 6-DTB labeling of USP7 (only protein of 566) [3]: > 3 fold
SMILES: CN1CCN(CCC(=O)Nc2ccc3c(=O)n(CC4(O)CCN(C(=O)[C@@H](CCCNC(=O)c5ccc6c(Cl)c7c(nc6c5)CCCC7)Cc5ccccc5)CC4)cnc3c2)CC1 [compound 6, (S)—N-(4-benzyl-5-(4-hydroxy-4-((7-(3-(4-methylpiperazin-1-yl)propanamido)-4-oxoquinazolin-3(4H)-yl)methyl)piperidin-1-yl)-5-oxopentyl)-9-chloro-5,6,7,8-tetrahydroacridine-3-carboxamide]
cell cycle effect [1]: complete G1 arrest
TP53 dependence of cell killing [4]: highly TP53-dependent cell killing
growth inhibition [5]: potently inhibited
growth inhibition [6]: potently inhibited
